Experiment [1] concerns human non-small cell lung carcinoma (LX-1). Briefly: Efficacy against subcutaneous LX-1 xenograft in nude mice. The format is in vivo. The settings on record: i.v.; for T/C(%) at Day 14: median tumor volume treated vs control when control ~1000 mm^3; for T/C (%) at Day 21: median tumor volume treated vs control when control ~2000 mm^3. The protocol: ^13C NMR spectra were obtained at 67.80 MHz on the JNM GSX-270 or 75.46 MHz on the Varian MercuryVX-300. Chemical shifts (δ) are reported in parts per million (ppm) downfield from tetramethylsilane (TMS) and coupling constants (J values) are given in hertz (Hz). All PEG conjugated compounds were dissolved (˜15 mg/mL) in sterile saline (0.9%) for injection prior to in vivo drug treatments and were given as their ara-C equivalents (absolute amount of ara-C given).
Athymic nude mice were implanted subcutaneous with a 4-5 mm^3 tissue fragment of LX-1 collected from donor mice. The tumor trocar site was observed twice weekly and measured once palpable. The tumor volume for each mouse was determined by measuring two dimensions with calipers and calculated using the formula: tumor volume=(length×width^2)/2. […] The mice were sorted to evenly distribute tumor size, grouped into 4 to 6 mice/group, and ear punched for permanent identification. Drugs were administered intravenously q3d×4 (Day 1, 4, 7 and 10) via the tail vein at an approximate rate of 0.5 mL per minute. Compounds were given both at an equal molar basis (absolute amount of active) of 20 mg/kg and at close their respective MTD (Ara-C, 100 mg/kg/dose (toxicity); PEG-AraC, 40 to 60 mg/kg/dose (volume). Mouse weight and tumor size were measured at the beginning of study and twice weekly through week 4. Drug effectiveness was determined by comparing tumor growth in treated versus untreated (no vehicle) control mice. Five types of endpoints were used as the basis for comparison: (a) mean tumor volumes at Day 28; (b) mean percent change in individual tumor volumes from initial; (c) percent difference in tumor volume (%T/C), measured when the control group's median tumor volume reached approximately 800-1100 mm^3 (exponential growth phase); (d) percent difference in tumor volume (%T/C) at Day 21 (˜2000 mm^3) and (e) the number of tumor regression (smaller tumor volume at Day 21 (˜2000 mm^3) and (e) the number of tumor regression (smaller tumor volume on Day 28 compared to Day 1) per group.

For experiment [2], the system named is P388/0. In words: Cytotoxicity assay, P388/0 cells (Alamar Blue). Format: cell-based. The settings on record: 37° C., 3 days incubation, duplicate, SD ±10%. Here is the method:
Cell Lines and Cytotoxicity Assays. Studies using P388/0 cell lines for IC50 (drug concentration inhibiting growth of cells by 50%) were maintained and conducted as previously reported. Briefly, for IC50 determination, cells were seeded into the microwell plates at a density […] per 50 μL per well. Plates were incubated at 37° C. in a humidified incubator with 5% CO2 for 3 days. Cell growth was measured by the addition of 10 μL/well of Alamar Blue (Alamar Biosciences, Inc., Sacramento, Calif.) and the plates were incubated a further 4 hours at 37° C. The IC50 values for each compound were determined from absorbance versus dilution factor plots. […] All cell lines were periodically tested for Mycoplasma and were Mycoplasma free.
(In general: The colour change of resazurin is a common sign of viable cells or microbes.)

On to `Nc1ccn([C@@H]2O[C@H](CO)[C@@H](O)[C@@H]2O)c(=O)n1` [Ara-C, ara-C], for which, in experiment [1] (total dose 80 mg/kg), the “Complete Regression (#/Grp)” value is given as 0/4, the “Regression at Day 28 (#/Grp)” value is given as 0/4, the “T/C(%) at Day 14” value turned out to be 51.1% and the “T/C (%) at Day 21” value was found to be 52.2%. Also, in experiment [1] (total dose 400 mg/kg), the “Complete Regression (#/Grp)” value is 0/6, the “Regression at Day 28 (#/Grp)” value is on record as 1/6, the “T/C(%) at Day 14” value turned out to be 16.7% and the “T/C (%) at Day 21” value was 33.4%. The same compound came in with an IC50 in experiment [2] of 10 nM.

For orientation: IC50 means the concentration at which inhibition is half-maximal.
